According to paper PMC9250534, “Synthesis and direct assay of large macrocycle diversities by combinatorial late-stage modification at picomole scale” (Nature Communications, 2022):
Numbered stars: 1 amine (or outer) side, 2 acyl side, 3 side chain; on linkers, the order of the positions; unused ones are H or OH. Bridge positions count the residues as written; N and C are the ends. Square brackets hold non-standard residues; d marks the D form. Peptide text beside a SMILES is read from it. * marks the point of attachment. 2Thenoyl(5-Cl) = O=C(c1ccc(Cl)s1)*; Cysteamide = C(CS[*:3])N[*:1]; X3 = O=C(Cc1c[nH]c2ccccc12)*; 3Amb = NCc1cccc(C(=O)O)c1; Isovaleryl = CC(C)CC(=O)*; 2Furoyl = O=C(c1ccco1)*; Mpa = O=C(O)CCS

Each molecule was assayed against T1, thrombin (Homo sapiens, UniProt P00734) (assay: Thrombin inhibition screen of crude macrocycle reactions (residual thrombin activity, fluorogenic substrate Z-Gly-Gly-Arg-AMC)). Conditions: 10 µM macrocycle concentration; crude reactions, Library 1a-l; scaffold AA1-AA2-AA3 combined with 1-16 or '-'.
T1 construct: consists of two polypeptide chains of 36 (light chain) and 259 amino acid
Assay type: biochemical
Outline: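 Residual activity was measured as the AMC release rate after adding 50 μM Z-Gly-Gly-Arg-AMC. This followed a 10-min room-temperature preincubation of 2 nM thrombin with 10 μM single macrocycles in pH 7.4 Tris buffer (0.6% DMSO). Percent inhibition was taken against the mean slope of DMSO controls.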

Row | Structure (SMILES) | percent residual thrombin activity
1 | C[C@H]1NC(=O)CCSSCCNC(=O)[C@H](CCCCNC(=O)c2ccco2)NC(=O)[C@@H]2CCCN2C1=O [a-B1-D1/16] ([Mpa][dA]PK(2Furoyl)-Cysteamide; disulfide 1-C) | 111.353%
2 | C[C@H]1NC(=O)CCSSCCNC(=O)[C@H](CCCCNC(=O)c2ccccc2)NC(=O)CCNC1=O [a-B2-D1/1] | 107.599%
3 | C[C@H]1NC(=O)CCSSCCNC(=O)[C@H](CCCCNC(=O)c2c[nH]c(=O)cn2)NC(=O)CCNC1=O [a-B2-D1/9] | 102.459%
4 | C[C@H]1NC(=O)CCSSCCNC(=O)[C@H](CCCCNC(=O)c2c[nH]c(=O)[nH]c2=O)NC(=O)CCNC1=O [a-B2-D1/11] | 107.663%
5 | C[C@H]1NC(=O)CCSSCCNC(=O)[C@H](CCCCNC(=O)c2ccco2)NC(=O)CCNC1=O [a-B2-D1/16] | 107.587%
6 | C[C@H]1NC(=O)CCSSCCNC(=O)[C@H](CCCCN)NC(=O)CCNC1=O [a-B2-D1/-] | 105.008%
7 | C[C@H]1NC(=O)CCSSCCNC(=O)[C@@H]2CCCN2C(=O)[C@H](CCCCNC(=O)Cc2c[nH]c3ccccc23)NC1=O [a-D1-B1/12] ([Mpa][dA]K(X3)P-Cysteamide; disulfide 1-C) | 113.455%
8 | C[C@H]1NC(=O)CCSSCCNC(=O)[C@@H]2CCCN2C(=O)[C@H](CCCCNC(=O)c2ccc(Cl)s2)NC1=O [a-D1-B1/14] ([Mpa][dA]K(2Thenoyl(5-Cl))P-Cysteamide; disulfide 1-C) | 109.871%
9 | CC1NC(=O)CCSSCCNC(=O)C2CCCN2C(=O)C(CCCCNC(=O)c2ccco2)NC1=O (stereo not drawn) [a-D1-B1/16] ([Mpa]AK(2Furoyl)P-Cysteamide; disulfide 1-C; configuration not given here) | 113.28%
10 | C[C@H]1NC(=O)CCSSCCNC(=O)[C@H]2CCCN(C2)C(=O)[C@H](CCCCNC(=O)c2ccccc2)NC1=O [a-D1-B4/1] | 107.784%

Now from value to molecule:

Row | percent residual thrombin activity | Structure (SMILES)
11 | 108.338% | C[C@H]1NC(=O)CCSSCCNC(=O)[C@H]2CCCN(C2)C(=O)[C@H](CCCCNC(=O)c2c[nH]c(=O)cn2)NC1=O [a-D1-B4/9]
12 | 104.737% | C[C@H]1NC(=O)CCSSCCNC(=O)c2cccc(c2)CNC(=O)[C@H](CCCCNC(=O)c2cnccn2)NC1=O [a-D1-B5/2]
13 | 99.075% | CC(C)CC(=O)NCCCC[C@@H]1NC(=O)[C@@H](C)NC(=O)CCSSCCNC(=O)c2cccc(c2)CNC1=O [a-D1-B5/8] ([Mpa][dA]K(Isovaleryl)[3Amb]-Cysteamide; disulfide 1-C)
14 | 109.062% | COc1ccc(C(=O)NCCCC[C@@H]2NC(=O)[C@@H](C)NC(=O)CCSSCCNC(=O)c3cccc(c3)CNC2=O)cn1 [a-D1-B5/10]
15 | 105.866% | C[C@H]1NC(=O)CCSSCCNC(=O)c2cccc(c2)CNC(=O)[C@H](CCCCNC(=O)COc2ccccc2)NC1=O [a-D1-B5/13]
16 | 102.51% | C[C@H]1NC(=O)CCSSCCNC(=O)c2cccc(c2)CNC(=O)[C@H](CCCCNC(=O)c2ccc(Cl)s2)NC1=O [a-D1-B5/14]
17 | 108.99% | C[C@H]1NC(=O)CCSSCCNC(=O)c2cccc(c2)CNC(=O)[C@H](CCCCN)NC1=O [a-D1-B5/-] ([Mpa][dA]K[3Amb]-Cysteamide; disulfide 1-C)
18 | 113.66% | O=C1CCNC(=O)[C@@H](CO)NC(=O)CCSSCCNC(=O)[C@H](CCCCNC(=O)c2cnccn2)N1 [s-B2-D1/2]
19 | 111.495% | Cc1cc(C(=O)NCCCC[C@@H]2NC(=O)CCNC(=O)[C@@H](CO)NC(=O)CCSSCCNC2=O)no1 [s-B2-D1/3]
20 | 109.681% | O=C1CCNC(=O)[C@@H](CO)NC(=O)CCSSCCNC(=O)[C@H](CCCCNC(=O)c2c[nH]c(=O)cn2)N1 [s-B2-D1/9]
21 | 113.521% | O=C1CCNC(=O)[C@@H](CO)NC(=O)CCSSCCNC(=O)[C@H](CCCCNC(=O)c2c[nH]c(=O)[nH]c2=O)N1 [s-B2-D1/11]
